In US5215994A, “Angiotenin II antagonizing heterocyclic derivatives” (Fujisawa Pharmaceutical Co., Ltd., priority 1990, dated 1993):

Test system: contractile response to angiotensin II in excised guinea pig ileum
Experiment: Inhibition by the antagonist of contractile response to angiotensin II in excised guinea pig ileum
Conditions: excised guinea pig ileum longitudinal strips; angiotensin II 10^-8 g/ml; test compound added 3 minutes prior; atropine present; 37° C.; read-out: IC50 (inhibition of angiotensin II contraction, percentage change to control response)
Experimental: [2] Inhibition by the antagonist of contractile response to angiotensin II in excised guinea pig ileum
Male guinea pigs weighing 300 g to 500 g were sacrificed by decapitation and the ileum were excised. Longitudial strips of the ileum (length: 2 cm) were placed in a 25 ml organ bath containing Tyrode's solution of the following composition (mM): NaCl, 137; KCl, 2.7; CaCl2, 1.8; MgCl2, 1.1; NaH2 PO4, 0.4; NaHCO3, 12; Glucose, 5.6.
The bath was maintained at 37° C. and bubbled with 95% O2 +5% CO2. The strips was stretched with a resting force of 0.5 g, and the isometric contraction were recorded via force development transducer on an ink-writing recorder. The preparation was equilibrated in Tyrode's solution mentioned above for 30 minutes, and then exposed to atropine (3.2×10^-7 g/ml) Five minutes later, the response for angiotensin II (1×10^-8 g/ml) was obtained and the preparation was washed a few times. This procedure was repeated twice. […] The inhibition of the test compound for angiotensin II contraction were expressed as a percentage change to control response, and IC50 (M) was calculated.

IC50: 1.7 nM
Structure (SMILES): CCCCc1nc2c(C)ccnc2n1Cc1ccc(-n2cc(Br)cc2-c2nnn[nH]2)cc1 [Compound 1, 3-[4-[4-Bromo-2-(1H-tetrazol-5-yl)-1-pyrrolyl]benzyl]-2-butyl-7-methyl-3H-imidazo[4,5-b]pyridine]
